According to patent US20060046993A1, “Crystalline polymorphic form of irinotecan hydrochloride” (Pharmacia Italia S.p.A., priority 2004, published 2006):
Structures can show the parent of a compound that is named as a salt.

Assay: Solubility determination of irinotecan hydrochloride Form c in comparison with Form b (excess solid shaken at room temperature, HPLC assay)
Assay type: physicochemical

Irinotecan hydrochloride concentration (a = deionized water, 15 MIN): 11.03 mg/mL
Irinotecan hydrochloride concentration (a = deionized water, 30 MIN): 12.10 mg/mL
Irinotecan hydrochloride concentration (a = deionized water, 60 MIN): 12.12 mg/mL
Irinotecan hydrochloride concentration (a = deionized water, 120 MIN): 11.80 mg/mL
Irinotecan hydrochloride concentration (b = pH 1.2 buffer, 15 MIN): 0.45 mg/mL
Irinotecan hydrochloride concentration (b = pH 1.2 buffer, 30 MIN): 0.42 mg/mL
Irinotecan hydrochloride concentration (b = pH 1.2 buffer, 60 MIN): 0.44 mg/mL
Irinotecan hydrochloride concentration (b = pH 1.2 buffer, 120 MIN): 0.40 mg/mL
Irinotecan hydrochloride concentration (c = lactic acid pH 3.5, 15 MIN): 10.27 mg/mL
Irinotecan hydrochloride concentration (c = lactic acid pH 3.5, 24 HOURS): 11.06 mg/mL
Irinotecan hydrochloride concentration (c = lactic acid pH 3.5, 30 MIN): 10.38 mg/mL
Irinotecan hydrochloride concentration (c = lactic acid pH 3.5, 60 MIN): 10.17 mg/mL
Irinotecan hydrochloride concentration (c = lactic acid pH 3.5, 120 MIN): 11.13 mg/mL
Structure (SMILES): CCc1c2c(nc3ccc(OC(=O)N4CCC(N5CCCCC5)CC4)cc13)-c1cc3c(c(=O)n1C2)COC(=O)[C@]3(O)CC [Form b, (S)-4,11-Diethyl-3,4,12,14-tetrahydro-4-hydroxy-3,14-dioxo-1H-pyrano[3′,4′:6,7]-indolizino[1,2-b]quinolin-9-yl[1,4′-bipiperidine]-1-carboxylate hydrochloride]
